Laboratory results as given in patent publication US8323252B2, “Method of treating skin ulcers using oxidative reductive potential water solution” (priority 2005, dated 2012).
Read-outs that look alike come from different tables or passages of the source.

Assays:
8-OHdG adducts in HDFs = settings: human, 30 min, 500 μM
Procedure: DNA was extracted right after the exposure (T0, white bars) or three hours after the challenge period (T3, black bars). DNA was digested and the 8-OHdG adducts were measured by ELISA kit as per the manufacturer's instructions. Values are shown (ng/mL) as mean±SD (n=3).

primary HDF cultures = settings: human, 1 month, 5 μM
[1] = system: murine polychromatic erythrocytes; settings: for PCE/NCE ratio: cyclophosphamide 8 mg/mL, 12.5 ml/kg i.p. on day 2
Procedure: The mammalian in vivo micronucleus test is used for the identification of substances which cause damage to chromosomes or the mitotic apparatus of murine polychromatic erythrocytes. This damage results in the formation of “micronuclei,” intracellular structures containing lagging chromosome fragments or isolated whole chromosomes. […] The positive control mice received a single intraperitoneal injection of cyclophosphamide (8 mg/mL, 12.5 ml/kg) on day 2. All mice were observed immediately after injection for any adverse reactions. […] On day 3, all mice were weighed and terminated.
The femurs were excised from the terminated mice, the bone marrow was extracted, and duplicate smear preparations were performed for each mouse. The bone marrow slides for each animal were read at 40× magnification. The ratio of polychromatic erythrocytes (PCE) to normochromatic erythrocytes (NCE), an index of bone marrow toxicity, was determined for each mouse by counting a total of at least 200 erythrocytes. Then a minimum of 2000 scoreable PCE per mouse were evaluated for the incidence of micronucleated polychromatic erythrocytes. Statistical analysis of the data were done using the Mann and Whitney test (at 5% risk threshold) from a statistical software package (Statview 5.0, SAS Institute Inc., USA).

Structure (SMILES)	increase of 8-OHdG adducts relative to control-treated or ORP water solution-treated cells (8-OHdG adducts in HDFs)	cells with increased SA-β-Gal expression (primary HDF cultures) [%]	PCE/NCE ratio ([1]; females)	number of polychromatic erythrocytes bearing micronuclei ([1]; males, ORP water solution = Microcyn 10%, 12.5 ml/kg i.p.)	PCE/NCE ratio ([1]; males)
OO [HP, hydrogen peroxide]	about 25 fold	86	–	–	–
O=P1(N(CCCl)CCCl)NCCCO1 (centres unmarked) [cyclophosphamide]	–	–	0.73	11.0	0.77
